From patent publication US12319649B1, “Cannabidiolic acid cocrystals” (Manoira Corporation, priority 2024, dated 2025)

Legend:
[1] = Solid-state stability study at 40° C. and 75% relative humidity; format: physicochemical; settings: 40° C./75% RH, sealed container; for Storage stability compared to pure cannabidiolic acid: up to 4 weeks
Experimental: The physical stability of the cannabidiolic acid cocrystals was examined with respect to solid form conversion or signs of decomposition or decarboxylation, and to compare the results with those for pure cannabidiolic acid. In order to assess the storage potential of the cocrystals within a reasonable timeframe standard accelerated storage conditions of 40° C. and 75% relative humidity were chosen. 50 mg each of the 1:1 cannabidiolic acid L-phenylalanine, 1:1 cannabidiolic acid vanillin, 1:1 cannabidiolic acid betaine, 1:1 cannabidiolic acid ethyl maltol, 1:1 cannabidiolic acid L-proline and cannabidiolic acid were separately placed in a sealed container at 40° C. and 75% relative humidity and monitored periodically over a 4-week time period. All samples that had not decomposed and remained as solids were analyzed by XRPD after this time to observe any potential form changes. At the start of the study, all cocrystal samples were white solids while the pure cannabidiolic acid was an off-white solid.

5-HT1A = biological target: T1, 5-HT1A (Rattus norvegicus, UniProt P19327); settings: higher affinity than CBD; Bolognini et al. 2012; cited from earlier work
T1 sequence (P19327 1-422): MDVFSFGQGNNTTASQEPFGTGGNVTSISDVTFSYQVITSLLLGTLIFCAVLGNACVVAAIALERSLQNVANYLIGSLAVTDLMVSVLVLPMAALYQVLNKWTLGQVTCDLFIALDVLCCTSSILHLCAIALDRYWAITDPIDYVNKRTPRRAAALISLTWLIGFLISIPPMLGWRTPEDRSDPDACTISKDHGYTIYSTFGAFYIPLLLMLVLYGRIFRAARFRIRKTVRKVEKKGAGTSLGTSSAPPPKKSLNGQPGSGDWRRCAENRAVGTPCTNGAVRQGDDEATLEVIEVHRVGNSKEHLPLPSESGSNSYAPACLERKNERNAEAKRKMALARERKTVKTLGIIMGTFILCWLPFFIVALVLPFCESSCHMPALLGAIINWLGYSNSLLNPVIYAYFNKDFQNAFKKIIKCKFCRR

[2] = system: nausea and vomiting in a rat model; settings: via 5-HT1A activation mechanism, Bolognini et al. 2012; cited from earlier work
[3] = WO2017025712; cited from earlier work
COX-2 = biological target: T2, COX-2 (Homo sapiens, UniProt P35354); settings: Takeda 2008; cited from earlier work
T2 sequence (P35354 18-604): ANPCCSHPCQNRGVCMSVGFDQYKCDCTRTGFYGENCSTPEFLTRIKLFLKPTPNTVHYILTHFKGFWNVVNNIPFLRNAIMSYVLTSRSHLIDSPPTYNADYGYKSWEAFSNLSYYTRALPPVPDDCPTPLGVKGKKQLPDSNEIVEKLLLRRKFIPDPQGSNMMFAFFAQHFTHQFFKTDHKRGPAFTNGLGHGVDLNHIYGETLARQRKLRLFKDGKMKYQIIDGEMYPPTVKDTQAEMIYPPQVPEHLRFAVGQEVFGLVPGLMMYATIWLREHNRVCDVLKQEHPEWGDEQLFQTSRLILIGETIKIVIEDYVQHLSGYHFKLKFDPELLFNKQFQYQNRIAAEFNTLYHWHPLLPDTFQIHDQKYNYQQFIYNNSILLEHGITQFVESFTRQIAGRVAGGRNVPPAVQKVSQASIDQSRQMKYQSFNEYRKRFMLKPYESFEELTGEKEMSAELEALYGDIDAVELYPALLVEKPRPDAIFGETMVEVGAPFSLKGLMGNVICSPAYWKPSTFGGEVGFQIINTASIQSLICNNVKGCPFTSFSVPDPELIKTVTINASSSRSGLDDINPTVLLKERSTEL

With `C=C(C)[C@@H]1CCC(C)=C[C@H]1c1c(O)cc(CCCCC)c(C(=O)O)c1O.C[N+](C)(C)CC(=O)[O-]` [1:1 CBDA Betaine Cocrystal, 1:1 cannabidiolic acid betaine cocrystal] the “XRPD (solid form change)” value ([1]; 4 weeks) was “No change”, the “XRPD (solid form change)” value ([1]; 4 weeks, listed as 1:1 cannabidiolic acid betaine) was “no solid form conversion or dissociation had occurred” and the Appearance ([1]; 4 weeks, white solid at start) was “No change”. For the same compound, the Appearance ([1]; 4 weeks, white solid at start, listed as 1:1 cannabidiolic acid betaine) was “remained unchanged as white solids” and the “Storage stability compared to pure cannabidiolic acid” value [1] was “significantly superior storage properties compared to pure CBDA”.

With `C=C(C)[C@@H]1CCC(C)=C[C@H]1c1c(O)cc(CCCCC)c(C(=O)O)c1O.N[C@@H](Cc1ccccc1)C(=O)O` [1:1 CBDA Phenylalanine Cocrystal, 1:1 cannabidiolic acid L-phenylalanine cocrystal] the “XRPD (solid form change)” value ([1]; 4 weeks) was “No change”, the “XRPD (solid form change)” value ([1]; 4 weeks, listed as 1:1 cannabidiolic acid L-phenylalanine) was “no solid form conversion or dissociation had occurred” and the Appearance ([1]; 4 weeks, white solid at start) was “No change”. For the same compound, the Appearance ([1]; 4 weeks, white solid at start, listed as 1:1 cannabidiolic acid L-phenylalanine) was “remained unchanged as white solids” and the “Storage stability compared to pure cannabidiolic acid” value [1] was “significantly superior storage properties compared to pure CBDA”.

In the case of `C=C(C)[C@@H]1CCC(C)=C[C@H]1c1c(O)cc(CCCCC)c(C(=O)O)c1O.CCc1occc(=O)c1O` [1:1 CBDA Ethyl Maltol Cocrystal, 1:1 cannabidiolic acid ethyl maltol cocrystal], the “Time to conversion into dark brown liquid” value [1] was ≤ 2 weeks, the Appearance ([1]; 2 weeks, white solid at start) was “Dark brown liquid” and the “Storage stability compared to pure cannabidiolic acid” value [1] was “more stable than pure cannabidiolic acid”.

For `C=C(C)[C@@H]1CCC(C)=C[C@H]1c1c(O)cc(CCCCC)c(C(=O)O)c1O` [Pure CBDA, cannabidiolic acid], the “Affinity for 5-HT1A relative to CBD” value (5-HT1A) is given as 100 fold, the “Inhibition of nausea and vomiting, potency versus CBD” value [2] is given as “significantly greater potency than CBD” and the “Time to deliquescence to a liquid” value [1] is given as “Within one hour”. The Appearance ([1]; 2 hours, off-white solid at start) was “Dark brown liquid”, the Appearance ([1]; 2 hours, off-white solid at start, listed as pure CBDA) was “liquid that within a further hour had turned dark brown in color” and the “Efficacy in treating epilepsy versus CBD” value [3] was “more effective than CBD”. The “Inhibition of COX-2 activity” value (COX-2) was “selectively inhibit COX-2 activity”.

With `C=C(C)C1CCC(C)=CC1c1c(O)cc(CCCCC)c(C(=O)O)c1O.O=C(O)C1CCCN1` [1:1 CBDA L-Proline Cocrystal, 1:1 cannabidiolic acid L-proline cocrystal] the “XRPD (solid form change)” value ([1]; 4 weeks) was “No change”, the “XRPD (solid form change)” value ([1]; 4 weeks, listed as 1:1 cannabidiolic acid L-proline cocrystal) was “same crystalline structure” and the Appearance ([1]; 4 weeks, white solid at start) was “tan solid”. The Appearance ([1]; 4 weeks, white solid at start, listed as 1:1 cannabidiolic acid L-proline cocrystal) was “tanned colored solid”.

For `C=C(C)[C@@H]1CCC(C)=C[C@H]1c1c(O)cc(CCCCC)c(C(=O)O)c1O.COc1cc(C=O)ccc1O` [1:1 CBDA Vanillin Cocrystal, 1:1 cannabidiolic acid vanillin cocrystal], the “Time to conversion into dark brown liquid” value [1] was ≤ 3 weeks, the Appearance ([1]; 3 weeks, white solid at start) was “Dark brown liquid” and the “Storage stability compared to pure cannabidiolic acid” value [1] was “more stable than pure cannabidiolic acid”.
